This is an account of results in US5002948A, “3-[4-[4-substituted-1-piperazinyl]-1-butyl]-1H-2,3-dihydroindoles” (H. Lundbeck A/S, priority 1988, dated 1991).

In experiment [1] the target is T1, serotonin 5-HT1A receptors (Rattus norvegicus, UniProt P19327).
T1 construct: membranes from rat brain minus cerebellum; from tissue; host or cells: brain minus cerebellum of male Wistar (Mol:Wist) rats, membranes
T1 sequence (P19327 1-422): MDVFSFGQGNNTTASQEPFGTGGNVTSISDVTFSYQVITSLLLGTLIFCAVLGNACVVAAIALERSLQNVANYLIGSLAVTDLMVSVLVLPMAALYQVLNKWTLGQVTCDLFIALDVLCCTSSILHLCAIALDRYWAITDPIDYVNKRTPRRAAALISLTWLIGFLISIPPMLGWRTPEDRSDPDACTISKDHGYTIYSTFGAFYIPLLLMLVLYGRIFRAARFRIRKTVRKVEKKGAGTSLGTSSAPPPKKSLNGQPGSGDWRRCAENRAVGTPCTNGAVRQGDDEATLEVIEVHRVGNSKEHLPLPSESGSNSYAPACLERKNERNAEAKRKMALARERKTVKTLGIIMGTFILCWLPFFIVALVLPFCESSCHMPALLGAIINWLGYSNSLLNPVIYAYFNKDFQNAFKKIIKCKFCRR
Kind of experiment: Inhibition of 3H-8-OHDPAT binding to serotonin 5-HT1A receptors in rat brain in vitro. The following applies: 3H-8-OHDPAT 1 nM, rat brain membranes minus cerebellum, 37° C., 15 min; read-out: IC50 (3H 8-OH DPAT binding). As to the method:
INHIBITION OF ^3 H-8-OHDPAT BINDING TO SEROTONIN 5-HT1A RECEPTORS IN A RAT BRAIN IN VITRO
By this method the inhibition by drugs of the binding of ^3 H-8-OHDPAT (1 nM) to serotonin 5-HT1A receptors in membranes from rat brain minus cerebellum is determined in vitro.
Male Wistar (Mol:Wist) rats (125-250 g) are sacrificed and the brain is dissected and weighed. The brain tissue minus cerebellum is homogenized (Ultra Turrax, 20 sec) in 10 ml of ice cold 50 mM Tris buffer pH 8.0 (at 25° C.) containing 120 mM NaCl, 4 mM CaCl2 and 4 mM MgCl2. The homogenate is centrifuged at 20,000 g for 10 min at 4° C. The pellet is homogenized in 10 ml of buffer and incubated at 37° C. for 10 min. The homogenate is centrifuged as above and the pellet is homogenized in 100 vol (w/v) ice cold buffer containing 10 μ M of parglyine.
Incubation tubes kept on ice in triplicate receive 100 μl of drug solution in water (or water for total binding) and 1000 μ l of tissue suspension (final tissue content corresponds to 10 mg original tissue). The binding experiment is initiated by addition of 100 μ l of ^3 H-8-OHDPAT (final concentration 1 nM) and by placing the tubes in a 37° C. water bath. After incubation for 15 min the samples are filtered under vacuum (0-50 mBar) through Whatman GF/F filters ([…]). The tubes are rinsed with 5 ml ice cold 0.9% NaCl which are then poured on the filters. Thereafter, the filters are washed with 2×5 ml 0.9% NaCl. The filters are placed in counting vials and 4 ml of appropriate scintillation fluid (e.g. Picofluor™15) are added. After shaking for 1 h and storage 2 h in the dark the content of radioactivity is determined by liquid scintillation counting. Specific binding is obtained by subtracting the nonspecific binding in the presence of 10 μ M of 5-HT.
For determination of the inhibition of binding five concentrations of drugs covering 3 decades are used.
The IC50 -value is determined as the concentration, at which the binding is 50% of the total binding in control samples minus the nonspecific binding in the presence of 10 μM of 5-HT.
^3 H-8-OHDPAT from Amersham International plc. England. Specific activity approximately 200 Ci/mmol).

For experiment [2], the target named is T2, 5-HT1A (Rattus norvegicus, UniProt P19327).
T2 sequence (P19327 1-422): T1 sequence (P19327 1-422)
The experiment is described as follows: Generalization to discriminative stimulus properties induced by 8-OHDPAT in rats (agonism). Format: in vivo, Male Wistar rats. Details: from tissue; host or cells: whole living animal, male Wistar rats, s.c. dosing. The conditions noted are these: rat, sc, read-out: ED50, 8-OH DPAT cue agonism. The text has this: GENERALIZATION TO DISCRIMINATIVE STIMULUS PROPERTIES INDUCED BY 8-OHDPAT IN RATS.
This test model is used to determine the agonist effects of a test compound on 5-HT1A receptors in vivo. A related method is described by Tricklebank, M. D., J. Neill, E. J. Kidd and J. R. Fozard, Eur. J. Pharmacol. 133, 37-56, 1987; Arnt, J., Pharmacology & Toxicology 64, 165-172, 1989.
The procedure is the same as for the antagonism test mentioned above, except that the test compound is substituted for 8-OHDPAT and injected s.c. usually 30 minutes or 45 minutes respectively before beginning of the test.
The per cent drug response obtained for each dose of test compound is used to calculate ED50 values by log-probit analysis.

For experiment [3], the target named is T2, 5-HT1A. Kind of experiment: Inhibition of 5-methoxy-N,N-dimethyltryptamine (5-MeODMT) induced 5-HT syndrome in rats. Format: in vivo, Male Wistar rats. The conditions noted are these: rat, sc. Also noted: Male Wistar rats (Mol:Wist) weighing 170-240 g are used; from tissue; host or cells: whole living animal, male Wistar rats (Mol:Wist), s.c. dosing. From the text: INHIBITION OF 5-METHOXY-N,N-[…] INDUCED 5-HT SYNDROME IN RATS
The so-called 5-HT syndrome is a characteristic behaviour pattern which is induced by 5-HT agonists with effects on 5-HT, possibly 5-HT1A receptors, although lack of specific antagonists make it difficult to evaluate specificity (Smith, L. M. and S. J. Peroutka, Pharmacol. Biochem. & Behaviour 24, 1513-1519, 1986; Tricklebank, M. et al., Eur. J. Pharmacol. 117, 15-24, 1985).
Male Wistar rats (Mol:Wist) weighing 170-240 g are used. Test substrate is injected subcutaneously 30 min. before 5-methoxy-N,N-dimethyltryptamine 5 mg/kg, s.c. Four rats are used for each dose. A control group pretreated with saline is included each test day. Ten, 15 and 20 min later the rats are observed for presence of serotonin (5-HT) syndrome: (1) forepaw treading ("piano playing"), (2) head weaving and (3) hindleg abduction. Further, flat motility is scored. Each part of the syndrome is scored as follows: marked effect (score 2), weak syndrome (score 1) and no effect (score 0). The scores of the three observation times are added. Thus the maximum obtainable score for four rats is 24. The effect of the test substance is expressed as per cent inhibition relative to the control group.
The per cent inhibition of the piano playing syndrome is used as the response, and ED50 values are calculated by log-prohibit analysis.

Regarding `c1ccc2c(c1)NCC2CCCCN1CCN(c2cccc3c2OCCO3)CC1` (single isomer, unassigned; (+)) [Compound 7c, (+)-3-[4-[4-(1,4-benzodioxan-5-yl)-1-piperazinyl]-1-butyl]-1H-2,3-dihydroindole], in experiment [1], the 50% inhibitory concentration (IC50) was found to be 3.5 nM.

Turning to `c1ccc2c(c1)NCC2CCCCN1CCN(c2cccc3c2OCCO3)CC1` (single isomer, unassigned; (-)) [Compound 7d, (-)-b 3-[4-[4-(1,4-benzodioxan-5-yl)-1-piperazinyl]-1-butyl]-1H-2,3-dihydroindole], the IC50 in experiment [1] turned out to be 3.1 nM.

Take `COc1ccccc1N1CCN(CCCCc2c[nH]c3ccc(F)cc23)CC1` [Compound 1a, 5-Fluoro-3-[4-[4-(2-methoxyphenyl)-1-piperazinyl]-1-butyl]-1 H-indole]: the IC50 in experiment [1] came to 11 nM.

On to `COc1ccccc1N1CCN(CCCCc2c[nH]c3cc(Cl)ccc23)CC1` [Compound 1b, 6-Chloro-3-[4-[4-(2-methoxyphenyl)-1-piperazinyl]-1-butyl]-1H-indole], for which the IC50 in experiment [1] amounted to 10 nM.

With `COc1ccccc1N1CCN(CCCCc2c[nH]c3ccccc23)CC1` [Compound 2a, 3-[4[4-(2-methoxyphenyl)-1-piperazinyl]-1-butyl]-1H-indole], the IC50 in experiment [1] amounted to 17 nM.

As to `c1cc2c(c(N3CCN(CCCCc4c[nH]c5ccccc45)CC3)c1)OCC2` [Compound 2b, 3-[4-[4-(2,3-dihydro-7-benzofuranyl)-1-piperazinyl]-1-butyl]-1H-indole], the IC50 in experiment [1] was determined as 14 nM.

Turning to `c1cc2c(c(N3CCN(CCCCc4c[nH]c5ccccc45)CC3)c1)OCCO2` [Compound 2c, 3-[4-[4-(1,4-benzodioxan-5-yl)-1-piperazinyl]-1-butyl]-1H-indole], in experiment [1], the IC50 came out at 5.7 nM.

Take `Fc1ccc2[nH]cc(CCCCN3CCN(c4cccc5c4OCCO5)CC3)c2c1` [Compound 2d, 3-[4-[4-(1,4-benzodioxan-5-yl)-1-piperazinyl]-1-butyl]-5-fluoro-1H-indole]: the IC50 in experiment [1] turned out to be 3.7 nM.

With `Fc1ccc2[nH]cc(CCCCN3CCN(c4cccc5c4OCC5)CC3)c2c1` [Compound 2e], the IC50 in experiment [1] came to 15 nM.

Consider `CSc1ccccc1N1CCN(CCCCC2CNc3ccccc32)CC1` (stereo not shown) [Compound 3b, 3-[4-[4-(2-methylthiophenyl)-1-piperazinyl]-1-butyl]-1H-2,3-dihydroindole], for which, in experiment [1], the IC50 turned out to be 14 nM.

On to `CC(C)Oc1ccccc1N1CCN(CCCCC2CNc3ccccc32)CC1` (stereo not shown) [Compound 3d, 3-[4-[4-(2-isopropyloxyphenyl)-1-piperazinyl]-1-butyl]-1H-2,3-dihydroindole], for which, in experiment [1], the IC50 is 17 nM.

As to `COc1ccccc1N1CCN(CCCCC2CNc3ccc(Cl)cc32)CC1` (stereo not shown) [Compound 3e, 5-chloro-3-[4-[4-(2-methoxyphenyl)-1-piperazinyl]-1-butyl]-1H-2,3-dihydroindole], the IC50 in experiment [1] came out at 9.2 nM.

As for `COc1ccccc1N1CCN(CCCCC2CNc3cc(Cl)ccc32)CC1` (stereo not shown) [Compound 3f, 6-chloro-3-[4-[4-(2-methoxyphenyl)-1-piperazinyl]-1-butyl]-1H-2,3-dihydroindole], the IC50 in experiment [1] was determined as 5.8 nM.

As to `COc1ccccc1N1CCN(CCCCC2CNc3ccc(F)cc32)CC1` (stereo not shown) [Compound 3g, 5-fluoro-3-[4-[4-(2-methoxyphenyl)-1-piperazinyl]-1-butyl]-1H-2,3-dihydroindole], in experiment [1], the IC50 stood at 17 nM.

For the compound `COc1cccc(N2CCN(CCCCC3CNc4ccccc43)CC2)c1OC` (stereo not shown) [Compound 3h, 3-[4-[4-(2,3-dimethoxyphenyl)-1-piperazinyl]-1-butyl]-1H-2,3-dihydroindole], the IC50 in experiment [1] worked out at 90 nM.

As to `Clc1ccc2c(c1)C(CCCCN1CCN(c3cccc4c3OCCO4)CC1)CN2` (stereo not shown) [Compound 3k, 3-[4-[4-(1,4-benzodioxan-5-yl)-1-piperazinyl]-1-butyl]-5-chloro-1H-2,3-dihydroindole], the IC50 in experiment [1] was found to be 7.6 nM.

As for `Fc1ccc2c(c1)C(CCCCN1CCN(c3cccc4c3OCCO4)CC1)CN2` (stereo not shown) [Compound 3l, 3-[4-[4-(1,4-benzodioxan-5-yl)-1-piperazinyl]-1-butyl]-5-fluoro-1H-2,3-dihydroindole], in experiment [1], the IC50 came to 4.4 nM.

In the case of `Fc1ccc2c(c1)C(CCCCN1CCN(c3cccc4c3OCC4)CC1)CN2` (stereo not shown) [Compound 3m, 3-[4-[4-(2,3-dihydro-7-benzofuranyl)-1-piperazinyl]-1-butyl]-5-fluoro-1H-2,3-dihydroindole], the IC50 in experiment [1] came out at 5.7 nM.

Take `Oc1ccccc1N1CCN(CCCCC2CNc3ccccc32)CC1` (stereo not shown) [Compound 4a, 3-[4-[4-(2-hydroxyphenyl)-1-piperazinyl]-1-butyl]-1H-2,3-dihydroindole]: in experiment [1], the 50% inhibitory concentration (IC50) worked out at 17 nM.

Regarding `COc1ccccc1N1CCN(CCCCC2CN(C(C)=O)c3ccccc32)CC1` (stereo not shown) [Compound 5a, 1-Acetyl-3-[4-[4-(2-methoxyphenyl)-1-piperazinyl]-1-butyl]-1H-2,3-dihydroindole], in experiment [1], the IC50 turned out to be 35 nM.

Take `COc1ccccc1N1CCN(CCCCC2CN(C)c3ccccc32)CC1` (stereo not shown) [Compound 6a, 3-[4-[4-(2-methoxyphenyl)-1-piperazinyl]-1-butyl]-1-methyl-1H-2,3-dihydroindole]: in experiment [1], the IC50 is 43 nM.

On to `COc1ccccc1N1CCN(CCCCC2C(=O)Nc3ccccc32)CC1` (stereo not shown) [Compound 8a, 3-[4-[4-(2-methoxyphenyl)-1-piperazinyl]-1-butyl]-1H-2,3-dihydroindol-2-on], for which the 50% inhibitory concentration (IC50) in experiment [1] was determined as 51 nM.

`COc1ccccc1N1CCN(CCCCc2n[nH]c3ccc(C(F)(F)F)cc23)CC1` [Compound 9a, 3-[4-[4-(2-methoxyphenyl)-1-piperazinyl]-1-butyl]-5-trifluoromethyl-1H-indazole]: the IC50 in experiment [1] turned out to be 8.6 nM.

On to `CC1(C)CC(=O)N(CCCCN2CCN(c3ncccn3)CC2)C(=O)C1` [gepirone, reference compound], for which the ED50 at 5-HT1A [2] came out at 0.81 µmol/kg; on 5-HT1A [3], 32 µmol/kg.

In general, IC50 refers to the concentration that inhibits the measured activity by half. For orientation: ED50 means the midpoint of the dose-response relation.
